Data taken from patent US11865146B2 (priority 2015, dated 2024).

System: C. difficile strain 630
Conditions: BDM without glucose
Method: All strains for this study were maintained inside an anaerobic growth chamber with a gas mixture of 75% N2/20% CO2/5% H2 (Coy Lab Products, Grass Lake, MI). Liquid and solid growth media was allowed to reduce in the anaerobic chamber for a minimum of 24 hours prior to use. For transfer out of the chamber, liquid stocks were sealed in sterile, gas-tight crimp cap glass vials. C. difficile strain 630 was maintained at 37° C. on Clostridium difficile Moxalactam Norfloxacin (CDMN) blood agar plates (Aspinall et al. 1992 J Clin Pathol. 45:812-814), in Reinforced Clostridial Medium (RCM) broth (Difco DF1808173), or in Basal Defined Medium (BDM) (Karasawa et al. 1995 Microbiology. 141:371-375) broth. C. difficile amino acid (AA) utilization was assessed using modified BDM containing ½ or ¼ of the standard AA content. Proline utilization was assessed in modified BDM lacking glucose and proline. Bacterial growth rates were assessed using a BioTek Eon microplate spectrophotometer (BioTek, Winooski, VT).

Question: For `O=C(O)[C@@H]1CCCN1` [proline], which “C. difficile growth in the absence of proline” value is on record?
Answer: Its value is “unable to grow”.
